The record followed here is patent publication US11021457B2, “Class of isoindolone-imide ring-1,3-dione-2-ene compounds, composition and use thereof” (WIGEN BIOMEDICINE TECHNOLOGY (SHANGHAI) CO., LTD., priority 2017, dated 2021).

Format in all cases: cell-based
Holding throughout (conditions): compound concentration 50 μM, 72 hours

In one assay the test system is SU-DHL6. Nature of the assay: Inhibition of tumor cell proliferation, CellTiter-Glo, SU-DHL6. In short, it runs like this:
(§1)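 Compound tested at 50 μM for 72 h, read by CellTiter-Glo. Survival rate = (treated−blank)/(control−blank) RLU ×100, binned as +++ ≤30%, ++ >30-≤60%, + 60-<90%. Seeding 2000-10000 cells/well depending on growth rate.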
Background: ATP-based viability assays read luminescence as a measure of living cells.

The test system of the next assay is RPMI-8226. Nature of the assay: Inhibition of tumor cell proliferation, CellTiter-Glo, RPMI-8226. A digest of the protocol:
as §1

The next assay deals with K562. Kind of assay: Inhibition of tumor cell proliferation, CellTiter-Glo, K562. In short, it runs like this: as §1
For the next assay, the system named is A549. Kind of assay: Inhibition of tumor cell proliferation, CellTiter-Glo, A549. A digest of the protocol:
as §1

Another assay relates to MDA-MB-453. Nature of the assay: Inhibition of tumor cell proliferation, CellTiter-Glo, MDA-MB-453. In short, it runs like this:
as §1

The next assay has as its system BxPC-3. Kind of assay: Inhibition of tumor cell proliferation, CellTiter-Glo, BxPC-3. A digest of the protocol: as §1

Structures are written as SMILES.

Turning to `O=C1CCC(N2Cc3c(NC(=O)c4cccnc4NC=C4C(=O)CC(c5ccccc5)CC4=O)cccc3C2=O)C(=O)N1` (stereo not drawn) [Compound 67], the “Inhibitory activity against proliferation (cell survival rate) SU-DHL6” value with SU-DHL6 is recorded as “+++ (survival rate (%)≤30)”. Also, the “Inhibitory activity against proliferation (cell survival rate) RPMI-8226” value with RPMI-8226 is reported as “+++ (survival rate (%)≤30)”. Further, in the assay on K562, the “Inhibitory activity against proliferation (cell survival rate) K562” value is “+++ (survival rate (%)≤30)”. Further, in the assay on A549, the “Inhibitory activity against proliferation (cell survival rate) A549” value is “+++ (survival rate (%)≤30)”. Moreover, the “Inhibitory activity against proliferation (cell survival rate) MDA-MB-453” value with MDA-MB-453 is recorded as “++ (30<survival rate (%)≤60)”. In addition, the “Inhibitory activity against proliferation (cell survival rate) BxPC-3” value in the assay on BxPC-3 was “+ (60≤survival rate (%)<90)”.
`O=C1CCC(N2C(=O)c3cccc(NS(=O)(=O)N4CCN(CCNC=C5C(=O)CC(c6ccccc6)CC5=O)CC4)c3C2=O)C(=O)N1` (stereo not drawn) [Compound 71]: the “Inhibitory activity against proliferation (cell survival rate) SU-DHL6” value with SU-DHL6 is listed as “+++ (survival rate (%)≤30)”. Moreover, the “Inhibitory activity against proliferation (cell survival rate) RPMI-8226” value in the assay on RPMI-8226 is on record as “+++ (survival rate (%)≤30)”. For the same compound, the “Inhibitory activity against proliferation (cell survival rate) K562” value in the assay on K562 was “+++ (survival rate (%)≤30)”. In the assay with A549, the “Inhibitory activity against proliferation (cell survival rate) A549” value is “+++ (survival rate (%)≤30)”. In the assay with MDA-MB-453, the “Inhibitory activity against proliferation (cell survival rate) MDA-MB-453” value was “+++ (survival rate (%)≤30)”. Further, the “Inhibitory activity against proliferation (cell survival rate) BxPC-3” value in the assay on BxPC-3 is listed as “+ (60≤survival rate (%)<90)”.
For the compound `O=C1CCC(N2Cc3c(NS(=O)(=O)N4CCN(CCNC=C5C(=O)CC(c6ccccc6)CC5=O)CC4)cccc3C2=O)C(=O)N1` (stereo not drawn) [Compound 72], in the assay on SU-DHL6, the “Inhibitory activity against proliferation (cell survival rate) SU-DHL6” value is “+++ (survival rate (%)≤30)”. The “Inhibitory activity against proliferation (cell survival rate) RPMI-8226” value in the assay on RPMI-8226 is reported as “+ (60≤survival rate (%)<90)”. The “Inhibitory activity against proliferation (cell survival rate) K562” value with K562 is “+++ (survival rate (%)≤30)”. Also, the “Inhibitory activity against proliferation (cell survival rate) A549” value in the assay on A549 was “+ (60≤survival rate (%)<90)”. The “Inhibitory activity against proliferation (cell survival rate) MDA-MB-453” value in the assay on MDA-MB-453 is given as “+ (60≤survival rate (%)<90)”. Further, the “Inhibitory activity against proliferation (cell survival rate) BxPC-3” value with BxPC-3 is “+ (60≤survival rate (%)<90)”.
For `CC(Nc1cccc2c1CN(C1CCC(=O)NC1=O)C2=O)=C1C(=O)CC(c2ccccc2)CC1=O` (stereo not drawn) [Compound 73], in the assay with SU-DHL6, the “Inhibitory activity against proliferation (cell survival rate) SU-DHL6” value is “+++ (survival rate (%)≤30)”. Moreover, the “Inhibitory activity against proliferation (cell survival rate) RPMI-8226” value in the assay with RPMI-8226 is listed as “+ (60≤survival rate (%)<90)”. For the same compound, in the assay with K562, the “Inhibitory activity against proliferation (cell survival rate) K562” value is reported as “+++ (survival rate (%)≤30)”. For the same compound, in the assay on A549, the “Inhibitory activity against proliferation (cell survival rate) A549” value is listed as “+++ (survival rate (%)≤30)”. The “Inhibitory activity against proliferation (cell survival rate) MDA-MB-453” value with MDA-MB-453 is “+++ (survival rate (%)≤30)”. In the assay on BxPC-3, the “Inhibitory activity against proliferation (cell survival rate) BxPC-3” value is recorded as “+ (60≤survival rate (%)<90)”.
With `O=C1CCC(N2Cc3c(NC(CO)=C4C(=O)CC(c5ccccc5)CC4=O)cccc3C2=O)C(=O)N1` (stereo not drawn) [Compound 74], in the assay with SU-DHL6, the “Inhibitory activity against proliferation (cell survival rate) SU-DHL6” value is “+ (60≤survival rate (%)<90)”. Moreover, the “Inhibitory activity against proliferation (cell survival rate) RPMI-8226” value in the assay on RPMI-8226 was “+ (60≤survival rate (%)<90)”. The “Inhibitory activity against proliferation (cell survival rate) K562” value in the assay on K562 was “+ (60≤survival rate (%)<90)”. The “Inhibitory activity against proliferation (cell survival rate) A549” value with A549 is reported as “+ (60≤survival rate (%)<90)”. Also, the “Inhibitory activity against proliferation (cell survival rate) MDA-MB-453” value with MDA-MB-453 was “+ (60≤survival rate (%)<90)”. Moreover, the “Inhibitory activity against proliferation (cell survival rate) BxPC-3” value in the assay with BxPC-3 was “+ (60≤survival rate (%)<90)”.
Consider `O=C1CCC(N2Cc3c(NC(=O)NCCNC=C4C(=O)CC(c5ccccc5)CC4=O)cccc3C2=O)C(=O)N1` (stereo not drawn) [Compound 77], for which the “Inhibitory activity against proliferation (cell survival rate) SU-DHL6” value in the assay on SU-DHL6 is listed as “+ (60≤survival rate (%)<90)”. Also, in the assay on RPMI-8226, the “Inhibitory activity against proliferation (cell survival rate) RPMI-8226” value is “+ (60≤survival rate (%)<90)”. Moreover, the “Inhibitory activity against proliferation (cell survival rate) K562” value in the assay on K562 was “+++ (survival rate (%)≤30)”. Also, the “Inhibitory activity against proliferation (cell survival rate) A549” value in the assay on A549 is given as “+++ (survival rate (%)≤30)”. Besides, the “Inhibitory activity against proliferation (cell survival rate) MDA-MB-453” value in the assay on MDA-MB-453 is “+++ (survival rate (%)≤30)”. For the same compound, the “Inhibitory activity against proliferation (cell survival rate) BxPC-3” value in the assay on BxPC-3 is “+ (60≤survival rate (%)<90)”.
On to `O=C1CCC(N2Cc3c(NC(=O)OCCNC=C4C(=O)CC(c5ccccc5)CC4=O)cccc3C2=O)C(=O)N1` (stereo not drawn) [Compound 78], for which the “Inhibitory activity against proliferation (cell survival rate) SU-DHL6” value in the assay with SU-DHL6 is given as “+ (60≤survival rate (%)<90)”. Also, the “Inhibitory activity against proliferation (cell survival rate) RPMI-8226” value in the assay with RPMI-8226 is listed as “+ (60≤survival rate (%)<90)”. Besides, the “Inhibitory activity against proliferation (cell survival rate) K562” value with K562 is reported as “+++ (survival rate (%)≤30)”. The “Inhibitory activity against proliferation (cell survival rate) A549” value in the assay on A549 is listed as “+++ (survival rate (%)≤30)”. Moreover, in the assay on MDA-MB-453, the “Inhibitory activity against proliferation (cell survival rate) MDA-MB-453” value is on record as “+++ (survival rate (%)≤30)”. Also, the “Inhibitory activity against proliferation (cell survival rate) BxPC-3” value in the assay with BxPC-3 is given as “+ (60≤survival rate (%)<90)”.
As for `O=C1CCC(N2Cc3c(NC(=O)OCCN4CCN(CCNC=C5C(=O)CC(c6ccccc6)CC5=O)CC4)cccc3C2=O)C(=O)N1` (stereo not drawn) [Compound 79], the “Inhibitory activity against proliferation (cell survival rate) SU-DHL6” value in the assay on SU-DHL6 is on record as “+ (60≤survival rate (%)<90)”. In addition, the “Inhibitory activity against proliferation (cell survival rate) RPMI-8226” value in the assay with RPMI-8226 is on record as “+++ (survival rate (%)≤30)”. In addition, the “Inhibitory activity against proliferation (cell survival rate) K562” value in the assay on K562 is reported as “+ (60≤survival rate (%)<90)”. In addition, the “Inhibitory activity against proliferation (cell survival rate) A549” value in the assay on A549 is reported as “+ (60≤survival rate (%)<90)”. The “Inhibitory activity against proliferation (cell survival rate) MDA-MB-453” value in the assay on MDA-MB-453 is recorded as “++ (30<survival rate (%)≤60)”. Moreover, the “Inhibitory activity against proliferation (cell survival rate) BxPC-3” value in the assay on BxPC-3 was “++ (30<survival rate (%)≤60)”.
With `O=C1CCC(N2C(=O)c3cccc(NC(=O)OCCN4CCN(CCNC=C5C(=O)CC(c6ccccc6)CC5=O)CC4)c3C2=O)C(=O)N1` (stereo not drawn) [Compound 80], the “Inhibitory activity against proliferation (cell survival rate) SU-DHL6” value in the assay on SU-DHL6 is on record as “+ (60≤survival rate (%)<90)”. In the assay with RPMI-8226, the “Inhibitory activity against proliferation (cell survival rate) RPMI-8226” value is listed as “+++ (survival rate (%)≤30)”. In addition, the “Inhibitory activity against proliferation (cell survival rate) K562” value with K562 was “+++ (survival rate (%)≤30)”. In addition, the “Inhibitory activity against proliferation (cell survival rate) A549” value with A549 is listed as “+++ (survival rate (%)≤30)”. For the same compound, the “Inhibitory activity against proliferation (cell survival rate) MDA-MB-453” value with MDA-MB-453 was “++ (30<survival rate (%)≤60)”. The “Inhibitory activity against proliferation (cell survival rate) BxPC-3” value in the assay on BxPC-3 was “+ (60≤survival rate (%)<90)”.
Take `O=C1CCC(N2Cc3c(NC(=O)Nc4ccccc4OC(=O)CCC(=O)OCCN4CCN(CCNC=C5C(=O)CC(c6ccccc6)CC5=O)CC4)cccc3C2=O)C(=O)N1` (stereo not drawn) [Compound 81]: the “Inhibitory activity against proliferation (cell survival rate) SU-DHL6” value in the assay on SU-DHL6 is “+++ (survival rate (%)≤30)”. In addition, in the assay with RPMI-8226, the “Inhibitory activity against proliferation (cell survival rate) RPMI-8226” value is “+ (60≤survival rate (%)<90)”. Further, the “Inhibitory activity against proliferation (cell survival rate) K562” value in the assay with K562 is reported as “+++ (survival rate (%)≤30)”. For the same compound, the “Inhibitory activity against proliferation (cell survival rate) A549” value in the assay on A549 is listed as “+++ (survival rate (%)≤30)”. In addition, the “Inhibitory activity against proliferation (cell survival rate) MDA-MB-453” value in the assay with MDA-MB-453 is on record as “++ (30<survival rate (%)≤60)”. In the assay on BxPC-3, the “Inhibitory activity against proliferation (cell survival rate) BxPC-3” value is “+ (60≤survival rate (%)<90)”.
